# Reference: patent US8173829B2, “Carbamate stereoisomer” (Sunovion Pharmaceuticals Inc., priority 2007, dated 2012)
# What was measured:
# adrenergic β2 receptors = molecular target: T1, adrenergic β2 receptors (Cavia porcellus, UniProt Q8K4Z4); test: β2 adrenergic activity (functional), relaxation of spontaneous tone of isolated trachea; design: species or system Dunkin Hartley Guinea pigs
# T1 construct: from tissue; host or cells: isolated trachea of Dunkin Hartley guinea pigs
# adrenergic β1 receptors = molecular target: T2, adrenergic β1 receptors (Cavia porcellus, UniProt H0W3H1); test: β1 adrenergic activity (functional), positive chronotropic effect in isolated right atria; design: species or system Dunkin Hartley Guinea pigs; conditions: β1 functional assay, at a concentration of 30 μM
# T2 construct: from tissue; host or cells: isolated right atria of Dunkin Hartley guinea pigs
# T2 sequence (H0W3H1 1-470): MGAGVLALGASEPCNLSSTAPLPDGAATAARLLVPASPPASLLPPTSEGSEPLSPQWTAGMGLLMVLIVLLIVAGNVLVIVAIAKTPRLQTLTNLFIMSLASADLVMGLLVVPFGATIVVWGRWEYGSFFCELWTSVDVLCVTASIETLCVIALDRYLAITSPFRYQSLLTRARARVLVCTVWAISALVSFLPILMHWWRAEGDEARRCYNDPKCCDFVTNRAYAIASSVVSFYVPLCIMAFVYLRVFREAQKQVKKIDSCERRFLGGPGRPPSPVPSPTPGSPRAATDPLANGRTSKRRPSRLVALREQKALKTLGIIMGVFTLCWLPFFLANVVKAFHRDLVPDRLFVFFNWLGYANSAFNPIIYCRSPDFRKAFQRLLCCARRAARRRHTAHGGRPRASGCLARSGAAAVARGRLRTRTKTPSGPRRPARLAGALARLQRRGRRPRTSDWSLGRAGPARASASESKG
# [1] = molecular target: T3, human recombinant β2 receptors (Homo sapiens, UniProt P07550); test: β2 radioligand binding assay
# T3 construct: expressed in transfected cells; host or cells: CHO cells
# T3 sequence (P07550 whole entry): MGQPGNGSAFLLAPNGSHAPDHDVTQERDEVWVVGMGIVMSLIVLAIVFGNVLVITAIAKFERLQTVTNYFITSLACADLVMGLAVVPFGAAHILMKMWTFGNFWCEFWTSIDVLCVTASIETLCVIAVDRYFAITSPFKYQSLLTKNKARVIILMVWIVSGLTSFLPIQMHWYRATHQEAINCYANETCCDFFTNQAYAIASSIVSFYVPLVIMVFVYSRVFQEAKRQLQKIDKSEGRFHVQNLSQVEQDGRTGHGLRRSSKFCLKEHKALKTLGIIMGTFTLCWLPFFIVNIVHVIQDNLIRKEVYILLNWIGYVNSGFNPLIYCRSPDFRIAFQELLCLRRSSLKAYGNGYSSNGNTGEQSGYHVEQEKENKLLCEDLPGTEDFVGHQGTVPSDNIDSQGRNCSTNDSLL
# Procedure: (§1) βi and β2 Radioligand Binding Assays
# (§2) The Ki is calculated from the IC50 and the known KD of the radioligand (Cheng and Prusoff's equation).
# [2] = molecular target: T4, human recombinant β2 receptors expressed in CHO cells (Homo sapiens, UniProt P07550); test: Intrinsic activity assessment (β2), cAMP production; assay type: cell-based; conditions: % response relative to a procaterol-induced cAMP increase
# T4 construct: expressed in transfected cells; host or cells: CHO cells
# T4 sequence (P07550 whole entry): as above
# Procedure: Intrinsic Activity Assessment (β2)
# The intrinsic activity of a test compound is assessed by evaluating its ability to increase cAMP production from human recombinant β2 receptors expressed in CHO cells. Data are expressed as % response relative to a procaterol-induced cAMP increase.
# [3] = molecular target: T5, human recombinant β1 receptors (Homo sapiens, UniProt P08588); test: β1 radioligand binding assay; conditions: β1 receptor
# T5 construct: expressed in transfected cells; host or cells: CHO cells
# T5 sequence (P08588 whole entry): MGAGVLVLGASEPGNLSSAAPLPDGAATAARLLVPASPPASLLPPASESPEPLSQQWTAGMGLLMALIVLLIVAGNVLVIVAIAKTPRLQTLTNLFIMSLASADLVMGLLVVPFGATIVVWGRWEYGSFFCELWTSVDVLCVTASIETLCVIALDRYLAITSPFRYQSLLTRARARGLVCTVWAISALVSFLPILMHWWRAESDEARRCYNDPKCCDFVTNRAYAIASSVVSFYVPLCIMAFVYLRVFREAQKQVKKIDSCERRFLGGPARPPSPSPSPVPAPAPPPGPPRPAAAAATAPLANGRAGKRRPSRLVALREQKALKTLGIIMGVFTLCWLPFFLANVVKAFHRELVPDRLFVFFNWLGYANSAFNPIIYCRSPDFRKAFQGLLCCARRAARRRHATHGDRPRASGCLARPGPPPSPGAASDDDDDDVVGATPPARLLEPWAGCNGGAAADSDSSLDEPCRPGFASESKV
# Procedure: as §1, §2
# [4] = Stability in aqueous buffered solutions; assay type: physicochemical
# Procedure: Stability in Aqueous Buffered Solutions
# Solution Preparations: For each test compound, the following solutions are prepared. • Solution A is prepared from ˜30 mg of the test compound in 150 mL of 0.005 M citrate buffer, pH 5.0 (˜0.2 mg/mL). • Solution B is prepared as follows: approximately 30 mL aliquot of Solution A is transferred to a separated container and the pH of the solution is adjusted to pH 3.0 with 1 N HCl (˜0.2 mL). • Solution C is prepared as follows: approximately 30 mL aliquot of Solution A is transferred to a separated container and the pH of the solution is adjusted to pH ˜8.0 with 1 N NaOH (˜0.2 mL). • Note: Because the volume of 1 N HCl or 1 N NaOH used for adjusting pH was negligible, the concentration of test compound in Solutions A, B and C were the same.
# Storage SCHEME • As soon as the above solutions were prepared, aliquots of each solution were transferred into 11 vials, of which 9 vials are stored at −20° C., and one each is stored at 30° C. and 40° C., respectively. • At each interval listed below, two vials are removed from −20° C. storage, and stored at 30° C. and 40° C., respectively. • The corresponding weeks under the storage condition (30° C. or 40° C.) are shown in the table below.
# On Week 12, the last vial stored at −20° C. is removed and warmed up to the room temperature, which is the Day 0 Solution.
# Sample Analysis: On Week 12, all solutions are assayed by an HPLC method using the Day 0 Solution at pH 5 as a standard solution. The test compounds were assayed by HPLC with UV detection (refer to Table 1 for method conditions).
# T1 sequence (Q8K4Z4 whole entry): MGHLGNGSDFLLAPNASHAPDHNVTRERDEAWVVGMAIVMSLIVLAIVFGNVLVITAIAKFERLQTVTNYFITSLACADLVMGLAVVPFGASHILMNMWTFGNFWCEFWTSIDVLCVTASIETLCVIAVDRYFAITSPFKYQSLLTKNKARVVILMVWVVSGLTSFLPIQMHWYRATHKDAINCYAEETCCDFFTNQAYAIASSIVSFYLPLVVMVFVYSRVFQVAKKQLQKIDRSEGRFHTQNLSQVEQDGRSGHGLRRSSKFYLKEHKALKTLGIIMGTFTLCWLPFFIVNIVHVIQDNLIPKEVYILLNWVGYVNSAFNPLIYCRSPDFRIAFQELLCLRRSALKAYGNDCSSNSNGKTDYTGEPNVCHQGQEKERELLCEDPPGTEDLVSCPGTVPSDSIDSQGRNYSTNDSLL
structure (smiles),measurement,setting,value
"COC(=O)Nc1cc([C@H](O)CN[C@H](C)Cc2ccc(O)cc2)ccc1O [Example 1, Carbamic acid, [2-hydroxy-5-[(1S)-1-hydroxy-2-[[(1R)-2-(4-hydroxyphenyl)-1-methylethyl]amino]ethyl]-phenyl]-, methyl ester]",β1/β2 functional ratio,adrenergic β2 receptors; ratio of EC50 β1 to EC50 β2,> 484
same,EC50,"adrenergic β2 receptors; β2, isolated trachea, guinea pig",62 nM
same,increase in heart rate,adrenergic β1 receptors,20%
same,β1/β2 binding ratio,[1]; ratio of Ki β1 to Ki β2,> 10
same,Ki,"[1]; β2 receptor, displacement of [3H]-CGP-12177, CHO cells",990 nM
same,Emax,[2],79%
same,inhibition at 20 µM,"[3]; at a concentration of 20 μM, read-out: inhibition of specific binding",44%
same,Ki,"[3]; displacement of [125I]-cyanopidolol, CHO cells",> 10000 nM
same,% of Initial Concentration (0.19847 mg/mL) in pH 5.0,"[4]; pH 3.0, 30° C., 0 wk",98.31%
same,% of Initial Concentration (0.19847 mg/mL) in pH 5.0,"[4]; pH 3.0, 30° C., 1 wk",99.95%
same,% of Initial Concentration (0.19847 mg/mL) in pH 5.0,"[4]; pH 3.0, 30° C., 2 wk",99.12%
same,% of Initial Concentration (0.19847 mg/mL) in pH 5.0,"[4]; pH 3.0, 30° C., 4 wk",100.91%
same,% of Initial Concentration (0.19847 mg/mL) in pH 5.0,"[4]; pH 3.0, 30° C., 8 wk",101.16%
same,% of Initial Concentration (0.19847 mg/mL) in pH 5.0,"[4]; pH 3.0, 30° C., 12 wk",101.54%
same,% of Initial Concentration (0.19847 mg/mL) in pH 5.0,"[4]; pH 3.0, 40° C., 0 wk",98.31%
same,% of Initial Concentration (0.19847 mg/mL) in pH 5.0,"[4]; pH 3.0, 40° C., 1 wk",98.87%
same,% of Initial Concentration (0.19847 mg/mL) in pH 5.0,"[4]; pH 3.0, 40° C., 2 wk",100.33%
same,% of Initial Concentration (0.19847 mg/mL) in pH 5.0,"[4]; pH 3.0, 40° C., 4 wk",105.71%
same,% of Initial Concentration (0.19847 mg/mL) in pH 5.0,"[4]; pH 3.0, 40° C., 8 wk",106.72%
same,% of Initial Concentration (0.19847 mg/mL) in pH 5.0,"[4]; pH 3.0, 40° C., 12 wk",106.51%
same,time for which found to be very stable,"[4]; pH 3 or 5, stored at 30° C.",at least 12 weeks
same,% of Initial Concentration (0.19847 mg/mL) in pH 5.0,"[4]; pH 5.0, 30° C., 0 wk",100.20%
same,% of Initial Concentration (0.19847 mg/mL) in pH 5.0,"[4]; pH 5.0, 30° C., 1 wk",99.68%
same,% of Initial Concentration (0.19847 mg/mL) in pH 5.0,"[4]; pH 5.0, 30° C., 2 wk",101.08%
same,% of Initial Concentration (0.19847 mg/mL) in pH 5.0,"[4]; pH 5.0, 30° C., 4 wk",101.59%
same,% of Initial Concentration (0.19847 mg/mL) in pH 5.0,"[4]; pH 5.0, 30° C., 8 wk",105.28%
same,% of Initial Concentration (0.19847 mg/mL) in pH 5.0,"[4]; pH 5.0, 30° C., 12 wk",106.61%
same,% of Initial Concentration (0.19847 mg/mL) in pH 5.0,"[4]; pH 5.0, 40° C., 0 wk",100.20%
same,% of Initial Concentration (0.19847 mg/mL) in pH 5.0,"[4]; pH 5.0, 40° C., 1 wk",100.40%
same,% of Initial Concentration (0.19847 mg/mL) in pH 5.0,"[4]; pH 5.0, 40° C., 2 wk",101.07%
same,% of Initial Concentration (0.19847 mg/mL) in pH 5.0,"[4]; pH 5.0, 40° C., 4 wk",102.09%
same,% of Initial Concentration (0.19847 mg/mL) in pH 5.0,"[4]; pH 5.0, 40° C., 8 wk",104.88%
same,% of Initial Concentration (0.19847 mg/mL) in pH 5.0,"[4]; pH 5.0, 40° C., 12 wk",106.74%
same,% of Initial Concentration (0.19847 mg/mL) in pH 5.0,"[4]; ~pH 8, 30° C., 0 wk",97.78%
same,% of Initial Concentration (0.19847 mg/mL) in pH 5.0,"[4]; ~pH 8, 30° C., 1 wk",69.33%
same,% of Initial Concentration (0.19847 mg/mL) in pH 5.0,"[4]; ~pH 8, 30° C., 2 wk",50.77%
same,% of Initial Concentration (0.19847 mg/mL) in pH 5.0,"[4]; ~pH 8, 30° C., 4 wk",27.72%
same,% of Initial Concentration (0.19847 mg/mL) in pH 5.0,"[4]; ~pH 8, 30° C., 8 wk",6.96%
same,% of Initial Concentration (0.19847 mg/mL) in pH 5.0,"[4]; ~pH 8, 30° C., 12 wk",1.24%
same,% of Initial Concentration (0.19847 mg/mL) in pH 5.0,"[4]; ~pH 8, 40° C., 0 wk",97.78%
same,% of Initial Concentration (0.19847 mg/mL) in pH 5.0,"[4]; ~pH 8, 40° C., 1 wk",30.18%
same,% of Initial Concentration (0.19847 mg/mL) in pH 5.0,"[4]; ~pH 8, 40° C., 2 wk",8.85%
same,% of Initial Concentration (0.19847 mg/mL) in pH 5.0,"[4]; ~pH 8, 40° C., 4 wk",0.52%
same,% of Initial Concentration (0.19847 mg/mL) in pH 5.0,"[4]; ~pH 8, 40° C., 8 wk",0%
same,% of Initial Concentration (0.19847 mg/mL) in pH 5.0,"[4]; ~pH 8, 40° C., 12 wk",0%
